From patent US20250114582A1, “METHOD FOR EFFICIENT DRUG ADMINISTRATION ACROSS THE BLOOD-BRAIN BARRIER AND USES THEREOF” (Carthera, priority 2023, published 2025)
Several values for one entry are separate records, joined by “and”; a condition that tells them apart may be missing. Equal values may be shown once. Entries after “also recorded” stand apart in the source; their conditions may differ.

Experiments:
[1] = tested on: recurrent Glioblastoma Multiforme (GBM); assay: phase 1/2a clinical trial: carboplatin with LIPU/microbubble BBB opening (SonoCloud-9), clinical outcomes; type: in vivo, human
Method: A prospective, open-label, multi-center, single-arm, dose escalation, phase 1/2a clinical trial was conducted enrolling recurrent Glioblastoma Multiforme (“GBM”) patients at four clinical sites in France and two sites in the United States. All patients provided written informed consent in accordance with institutional guidelines. Approval was obtained from the ANSM (French National Health Agency) and from the US FDA (Food and Drug Administration). The study was conducted in accordance with good clinical practices. The study began in February 2019 and follow-up was completed in November 2022.
The trial was designed to evaluate the safety and efficacy of transient disruption of the blood-brain barrier by low intensity pulsed ultrasound (“LIPU”) with an implantable ultrasound device, i.e., the SonoCloud-9 implantable device (“SC9”; Carthera, Lyon, France). The trial first evaluated the Dose Limiting Toxicity (“DLT”) of escalating numbers of ultrasound beams (3, 6, and 9 beams) at constant acoustic pressure (1.03 MPa) using a 3+3 dose escalation design (cohorts A, B and C) and then confirmed the safety and efficacy of BBB opening in two expansion cohorts (cohorts C & D).
(§1) The secondary endpoints included the frequency and severity of adverse events (incidence of adverse events summarized by system organ class and/or preferred term and severity) based on the CTCAE, version 5.0, the time to and localization of recurrence(s) on magnetic resonance imaging, feasibility of the procedure considering the time required for the sonication (from beginning of needle connection to the end of ultrasound emission and needle extraction) at the first 3 sonications of each patient, and the total time for SonoCloud 9 positioning using the SonoCloud 9 template. Six-month progression-free survival (6m-PFS), median progression-free survival (mPFS), and 1-year overall survival (1y-OS) and median OS (mOS) were also evaluated. In this trial, time to progression or to death was calculated from time of surgery/device implantation to time of events.
The SC9 device contains no internal energy source and is activated on demand by connecting the device to an external generator using a transdermal needle, as shown in FIG. 7A. Each sonication step consists of the generation of sequential pulses from each emitter (1 MHz, 25 ms pulse, 0.5 Hz, 270 seconds) in combination with the IV administration of the ultrasound resonator (microbubbles [MB], Definity®/Luminity® 10 μL/kg, Lantheus, N. Billerica, MA). The ultrasound resonator is injected as a 30-second bolus at the start of the ultrasound sonication procedure. Sonication was performed prior (within 60 minutes) to the carboplatin chemotherapy at cycles 1, 2 and 3 and no more than 30 minutes before the start of carboplatin therapy for the following cycles, for cohorts A, B, and C. For cohort D, the sonication was performed immediately after the completion of the carboplatin infusion. After completion of the six sonication cycles specified in the protocol or in the case of progression/premature discontinuation of the trial and prior to the end of study visit, the removal of the device could be performed unless considered as contra-indicated by the investigator or refused by the patient.
Standard carboplatin chemotherapy using any FDA/ANSM-approved, therapeutically equivalent carboplatin injectable drug product, with a target AUC of 4-6 mg/ml*min (AUC as per local practice and investigators judgement) was given according to the Calvert formula (Calvert et al., 1989, J. Clin. Oncol. 7:1748-1756). Cycles were to be repeated every 4 weeks provided the absolute neutrophil count had recovered to ≥1500 cells/mm^3 and the platelet count was at least 100,000 cells/mm^3. Subsequent dosages were adjusted for toxicity as needed per local practice.

[2] = dose-limiting toxicity, tolerability and safety of carboplatin delivered with concomitant LIPU/MB-based BBB opening; type: in vivo, human
Excerpt: For the Phase 1 (escalation of the number of active emitters/beams), the main objective was to identify the Maximum Tolerated Dose (“MTD”) defined as the highest active-beams level at which ≤1 DLT occurred in a maximum of 6 patients by cohort. […]
as §1
All patients were clinically assessed at least once a month (prior to the next cycle) and included standard laboratory blood analyses (complete blood counts, chemistry with liver and kidney function tests), and also a contrast-enhanced MRI within 2 days prior to sonication. Patients discontinued the study if tumor progression was identified according to the Response Assessment in Neuro-Oncology criteria (Wen et al., 2010, J. Clin. Oncol. 28:1963-1972). For patients continuing the study, subsequent MRI exam was to be performed immediately after LIPU/MB treatment.

[3] = tested on: recurrent Glioblastoma Multiforme (GBM); assay: contrast enhancing tumor progression assessment on MRI in the clinical trial; type: in vivo, human; conditions: for tumor growth rate (median): hyperintense T1w volume in region targeted by the implant
Method: To evaluate the local effect of the treatment, an analysis was performed using the monthly pre-ultrasound and end-of-study MR images. The T1w contrast-enhancing tumor-related region segmented with a semi-automatic method (ITK Snap) (Yushkevich et al. 2006, Neuroimage 31:1116-1128). The total volume of this hyperintense region was evaluated at each treatment cycle in the whole brain, and in the region targeted by the implant, considering nine […] cylinders in front of the emitters. This region corresponded to 10×75 mm cylinders with an additional diffusion margin of 5 mm (Goldwirt et al., 2016, Cancer Chemother. Pharmacol. 77:211-216).
To further evaluate tumor progression likelihood as a function of distance to the region targeted by the emitters, the difference of this hyperintense volume between the last MRI and the first cycle was used as a progression mask. The distribution of the volume of this progression mask relative to the distance to the axes of the nine emitters was computed.

[4] = plasma kinetics used for the model; cited from earlier work
[5] = cohort C, carboplatin after US (N = 15)
[6] = cohort D, carboplatin before US (N = 12)
[7] = cohorts C + D (N = 27), 9 emitters activated
[8] = CTCAE Grade 3, N = 34, related to the investigational procedure
[9] = CTCAE all grade, N = 34, related to the investigational procedure

N.N.O=C([O-])C1(C(=O)[O-])CCC1.[Pt+2] [carboplatin]
1-yr OS [1, 5]: 46.7% and 47%
9-month OS [1, 5]: 67%
mOS [1, 5]: 11.8 months
mPFS [1, 5]: 2.5 months
1-yr OS [1, 6]: 58.3% and 58%
9-month OS [1, 6]: 75%
mOS [1, 6]: 14.0 months
mPFS [1, 6]: 3.1 months
1-yr OS [1, 7]: 52%
9-month OS [1, 7]: 70%
mOS [1, 7]: 12.4 months
mPFS [1, 7]: 2.7 months
General disorders and administration site conditions [2, 8]: 1 (3%)
Infections and infestations [2, 8]: 2 (6%)
Nervous system disorders [2, 8]: 3 (9%)
Patients with Any Related TEAEs (Overall) [2, 8]: 12 (35%)
Skin and subcutaneous tissue disorders [2, 8]: 6 (18%)
Anxiety [2, 9]: 1 (3%)
Aphasia [2, 9]: 4 (12%)
Balance disorder [2, 9]: 1 (3%)
Cerebrospinal fluid leakage [2, 9]: 2 (6%)
Confusional state [2, 9]: 1 (3%)
Depression [2, 9]: 1 (3%)
Diplopia/Vision blurred [2, 9]: 6 (17%)
Dizziness [2, 9]: 8 (24%)
Dysarthria [2, 9]: 2 (6%)
Ear and labyrinth disorders [2, 9]: 2 (6%)
Fatigue/Asthenia [2, 9]: 6 (18%)
General disorders and administration site conditions [2, 9]: 8 (24%)
Headache [2, 9]: 7 (21%)
Hypoaesthesia [2, 9]: 1 (3%)
Implant site pain [2, 9]: 1 (3%)
Infections and infestations [2, 9]: 2 (6%)
Injury, poisoning and procedural complications [2, 9]: 3 (9%)
Lacunar stroke [2, 9]: 1 (3%)
Language disorder [2, 9]: 1 (3%)
Meningocele acquired [2, 9]: 3 (9%)
Monoparesis [2, 9]: 1 (3%)
Nervous system disorders [2, 9]: 25 (74%)
Pain of skin [2, 9]: 19 (56%)
Paraesthesia [2, 9]: 3 (9%)
Patients with Any Related TEAEs (Overall) [2, 9]: 33 (97%)
Post procedural oedema [2, 9]: 1 (3%)
Presyncope [2, 9]: 2 (6%)
Psychiatric disorders [2, 9]: 2 (6%)
Scar [2, 9]: 1 (3%)
Seizure [2, 9]: 2 (6%)
Skin and subcutaneous tissue disorders [2, 9]: 19 (56%)
Subarachnoid haemorrhage [2, 9]: 1 (3%)
Vertigo [2, 9]: 2 (6%)
Wound infection/Postoperative wound infection [2, 9]: 2 (6%)
grade 4 events ([2]; CTCAE, all implanted patients): No grade 4 events
tolerability of device implantation and repeated BBB opening procedure ([2]; all patients): well-tolerated
pattern of hematological and non-hematological toxicities secondary to carboplatin ([2]; e.g. bone marrow suppression, anemia, vomiting): as expected
Dose Limiting Toxicity (DLT) ([2]; sonication plus carboplatin, 3, 6 and 9 beams): No DLTs
tumor growth rate (median) ([3]; cohort C (carboplatin after sonication)): 2.31 mL/month
evolution of the T1w enhancement outside the sonication field ([3]; cohort C vs cohort D, region targeted by the implant excluded (p=0.55)): no significant difference
tumor growth rate (median) ([3]; cohort D (carboplatin before sonication)): 0.54 mL/month
in-field tumor control ([3]; cohort D compared to cohort C): Better in-field tumor control
local tumor progression probability (% ROI volume covered with hyperintense tumor at end of study vs distance to emitter axis) ([3]; cohort D vs cohort C, up to 10 mm radius from emitter axes (significant up to 7.5 mm)): less likelihood; also recorded: lower
alpha half-life [4]: ~1 h
beta half-life [4]: ~6 h

CC(=O)O[C@H]1C(=O)[C@@]2(C)[C@H]([C@H](OC(=O)c3ccccc3)[C@]3(O)C[C@H](OC(=O)[C@H](O)[C@@H](NC(=O)c4ccccc4)c4ccccc4)C(C)=C1C3(C)C)[C@]1(OC(C)=O)CO[C@@H]1C[C@@H]2O [paclitaxel]
alpha half-life [4]: ~0.5 h
beta half-life [4]: several hours
